Patent US4994376A, “Detection of bacteroides gingivalis” (priority 1987, dated 1991)
Like-named read-outs stand apart in the source and are kept apart here.

What was measured:
Type in all cases: biochemical
[1] = test system: Haemophilus aphrophilus; test: Aminopeptidase activity on β-naphthylamide substrates; conditions: β-naphthylamine liberated after 60 minutes, 37° C.
Procedure, shortened: (§1)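 Aminopeptidase values express the nanomoles of β-naphthylamine freed from N-CBz-glycyl-glycyl-L-arginine-β-naphthylamide during a 60-minute, 37° C incubation. The liberated amine was coupled with stabilized diazonium salt Fast Garnet GBC and measured at 525 nm against an enzyme-free blank.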

[2] = test system: A. equuli; test: as above; conditions: strain ATCC 19392; β-naphthylamine liberated after 60 minutes, 37° C.
Procedure, shortened: as §1

[3] = test system: Lactobacillus casei; test: as above; conditions: β-naphthylamine liberated after 60 minutes, 37° C.
Procedure, shortened: as §1

[4] = test system: S. salivarius; test: as above; conditions: β-naphthylamine liberated after 60 minutes, 37° C.
Procedure, shortened: as §1

[5] = test system: L. fermentum; test: as above; conditions: strain ATCC 11581; β-naphthylamine liberated after 60 minutes, 37° C.
Procedure, shortened: as §1

[6] = test system: F. periodonticum; test: as above; conditions: strain EK1-15; β-naphthylamine liberated after 60 minutes, 37° C.
Procedure, shortened: as §1

[7] = test system: A. suis; test: as above; conditions: strain ATCC 15557; β-naphthylamine liberated after 60 minutes, 37° C.
Procedure, shortened: as §1

[8] = test system: B. melaninogenicus; test: as above; conditions: strain ATCC 25845; β-naphthylamine liberated after 60 minutes, 37° C.
Procedure, shortened: (§2)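 N-CBz-glycyl-glycyl-L-arginine-β-naphthylamide was hydrolysed for 1 hour at 37 °C, then coupled with Fast Garnet GBC (0.5 mg/ml) in 1M acetic acid buffer, pH 4.2, containing 10% Tween 20. After 15 minutes at room temperature, absorbance was read at 525 nm against a no-enzyme blank; activity is given as nmol β-naphthylamine released per 60 min.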

[9] = test system: C. sputigena; test: as above; conditions: strain ATCC 33123; β-naphthylamine liberated after 60 minutes, 37° C.
Procedure, shortened: as §2

[10] = test system: B. denticola; test: as above; conditions: strain ATCC 33185; β-naphthylamine liberated after 60 minutes, 37° C.
Procedure, shortened: as §2

[11] = test system: B. corporis; test: as above; conditions: strain ATCC 33547; β-naphthylamine liberated after 60 minutes, 37° C.
Procedure, shortened: as §2

[12] = test system: B. intermedius; test: as above; conditions: strain ATCC 25611; β-naphthylamine liberated after 60 minutes, 37° C.
Procedure, shortened: as §2

[13] = test system: B. mel. ss. intermedius; conditions: β-naphthylamine liberated after 60 minutes, 37° C.
Procedure, shortened: as §2

[14] = test system: B. loescheii; conditions: β-naphthylamine liberated after 60 minutes, 37° C.
Procedure, shortened: as §2

[15] = test system: Capnocytophaga gingivalis; conditions: strain ATCC 33624; β-naphthylamine liberated after 60 minutes, 37° C.
Procedure, shortened: as §2

[16] = test system: Capnocytophaga sp.; conditions: strain JD3-5; β-naphthylamine liberated after 60 minutes, 37° C.
Procedure, shortened: as §2

[17] = test system: Bacteroides gingivalis; conditions: β-naphthylamine liberated after 60 minutes, 37° C.
Procedure, shortened: as §2

[18] = test system: C. ochracea; conditions: strain ATCC 27872; β-naphthylamine liberated after 60 minutes, 37° C.
Procedure, shortened: as §2

[19] = test system: B. asaccharolyticus; conditions: β-naphthylamine liberated after 60 minutes, 37° C.
Procedure, shortened: as §2

[20] = test system: B. levii; conditions: β-naphthylamine liberated after 60 minutes, 37° C.
Procedure, shortened: as §2

[21] = test system: Actinobacillus actinomycetemcomitans; conditions: β-naphthylamine liberated after 60 minutes, 37° C.
Procedure, shortened: as §1

[22] = test system: "Anaerobic vibrio"; conditions: strain SN2T2; β-naphthylamine liberated after 60 minutes, 37° C.
Procedure, shortened: as §1

[23] = test system: Veillonella sp.; conditions: strain SE1M2; β-naphthylamine liberated after 60 minutes, 37° C.
Procedure, shortened: as §1

[24] = test system: Streptococcus mitis; conditions: β-naphthylamine liberated after 60 minutes, 37° C.
Procedure, shortened: as §1

[25] = test system: Actinomyces israeli; conditions: β-naphthylamine liberated after 60 minutes, 37° C.
Procedure, shortened: as §1

[26] = test system: S. sanguis; conditions: β-naphthylamine liberated after 60 minutes, 37° C.
Procedure, shortened: as §1

[27] = test system: S. mutans; conditions: strain ATCC 25175; β-naphthylamine liberated after 60 minutes, 37° C.
Procedure, shortened: as §1

[28] = test system: A. viscosus; conditions: β-naphthylamine liberated after 60 minutes, 37° C.
Procedure, shortened: as §1

Compound: CSCCC(N)C(=O)Nc1ccc2ccccc2c1 (racemic)
- Aminopeptidase activity ([1]; strain ATCC 13252): 0 nmol
- Aminopeptidase activity ([1]; strain ATCC 19415): 0 nmol
- Aminopeptidase activity ([1]; strain NCTC 5908): 0 nmol
- Aminopeptidase activity [2]: 0 nmol
- Aminopeptidase activity ([3]; strain ATCC 7469): 1 nmol
- Aminopeptidase activity ([3]; strain ATCC 11578): 9 nmol
- Aminopeptidase activity ([3]; strain ATCC 11582): 9 nmol
- Aminopeptidase activity ([4]; strain ATCC 9759): 5 nmol
- Aminopeptidase activity ([4]; strain ATCC 25975): 1 nmol
- Aminopeptidase activity [5]: 6 nmol
- Aminopeptidase activity [6]: 0 nmol
- Aminopeptidase activity [7]: 0 nmol
- Aminopeptidase activity [8]: 1 nmol
- Aminopeptidase activity [9]: 117 nmol
- Aminopeptidase activity [10]: 0 nmol
- Aminopeptidase activity [11]: 0 nmol
- Aminopeptidase activity [12]: 0 nmol
- Aminopeptidase activity ([13]; strain ATCC 25261): 0 nmol
- Aminopeptidase activity ([13]; strain ATCC 33563): 0 nmol
- Aminopeptidase activity ([13]; strain NCTC 9336): 0 nmol
- Aminopeptidase activity ([14]; strain ATCC 15930): 0 nmol
- Aminopeptidase activity ([14]; strain VPI4196): 0 nmol
- Aminopeptidase activity [15]: 122 nmol
- Aminopeptidase activity [16]: 28 nmol
- Aminopeptidase activity ([17]; strain 9-14K-1): 0 nmol
- Aminopeptidase activity ([17]; strain 11-1-2): 0 nmol
- Aminopeptidase activity ([17]; strain 381): 0 nmol
- Aminopeptidase activity ([17]; strain 1021): 0 nmol
- Aminopeptidase activity ([17]; strain ATCC 33277): 0 nmol
- Aminopeptidase activity ([17]; strain FAYE 19m-1): 0 nmol
- Aminopeptidase activity [18]: 118 nmol
- Aminopeptidase activity ([19]; strain 536B): 0 nmol
- Aminopeptidase activity ([19]; strain ATCC 18569): 0 nmol
- Aminopeptidase activity ([19]; strain ATCC 25260): 1 nmol
- Aminopeptidase activity ([19]; strain ATCC 27067): 2 nmol
- Aminopeptidase activity ([19]; strain NY446): 0 nmol
- Aminopeptidase activity ([20]; strain 18-1-5): 0 nmol
- Aminopeptidase activity ([20]; strain 18-1-8): 1 nmol
- Aminopeptidase activity ([21]; strain 67): 0 nmol
- Aminopeptidase activity ([21]; strain 75): 0 nmol
- Aminopeptidase activity ([21]; strain ATCC 29523): 1 nmol
- Aminopeptidase activity ([21]; strain NCTC 9709): 0 nmol
- Aminopeptidase activity ([21]; strain Y4): 0 nmol
- Aminopeptidase activity [22]: 0 nmol
- Aminopeptidase activity [23]: 0 nmol
- Aminopeptidase activity ([24]; strain ATCC 9815): 52 nmol
- Aminopeptidase activity ([24]; strain ATCC 15909): 12 nmol
- Aminopeptidase activity ([24]; strain ATCC 15911): 13 nmol
- Aminopeptidase activity ([24]; strain ATCC 15912): 17 nmol
- Aminopeptidase activity ([25]; strain ATCC 12103): 12 nmol
- Aminopeptidase activity ([25]; strain DK2-3): 33 nmol
- Aminopeptidase activity ([26]; strain ATCC 10556): 23 nmol
- Aminopeptidase activity ([26]; strain ATCC 10557): 18 nmol
- Aminopeptidase activity [27]: 5 nmol
- Aminopeptidase activity ([28]; strain ATCC 19246): 9 nmol
- Aminopeptidase activity ([28]; strain T14V): 7 nmol
